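48-hour exposure; five concentrations; linearly interpolated endpoints. GI50 marks 50% less growth.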 Active and inactive are the calls of the source. Rule as the data show it: active = GI50 up to about 1.1 µM and inactive = higher.
Columns and labels:
Assay in all cases: NCI anticancer screen, dose series, 48 h
[1] = test system: MOLT-4
[2] = test system: MDA-MB-231
[3] = test system: KM12
[4] = test system: DU-145
[5] = test system: MDA-N
[6] = test system: SK-MEL-28
[7] = test system: SNB-19
[8] = test system: RPMI-8226
[9] = test system: LOX IMVI
[10] = test system: CAKI-1
[11] = test system: HCT-116
[12] = test system: NCI-H460
[13] = test system: UACC-62
[14] = test system: K562
[15] = test system: PC-3
[16] = test system: TK-10
[17] = test system: Malme-3M
[18] = test system: CCRF-CEM
[19] = test system: NCI-H522

Measured: GI50

Cn1c(=O)c2c(nc3sc4ccccc4c(=O)n32)n(C)c1=O
inactive: [1] > 100 µM | [2] > 100 µM | [3] > 100 µM | [4] > 100 µM | [5] > 100 µM | [6] > 100 µM | [7] > 100 µM | [8] > 100 µM | [9] > 100 µM | [10] > 100 µM | [11] > 100 µM | [12] > 100 µM | [13] > 100 µM | [14] > 100 µM | [15] > 100 µM | [16] > 100 µM

OC(CCN1CCN(CCOC(c2ccccc2)c2ccccc2)CC1)c1ccc(Br)cc1 (stereo not drawn)
inactive: [2] 11.7 µM | [3] 11.4 µM | [4] 16 µM | [5] 10.9 µM | [6] 7.69 µM | [7] 15.8 µM | [17] 11.7 µM | [9] 10 µM | [10] 12.2 µM | [11] 11.2 µM | [12] 8.11 µM | [18] 12.7 µM | [13] 10.6 µM | [15] 10.9 µM | [16] 13.7 µM | [19] 14.3 µM

O=S(=O)(c1ccccc1)n1c(C(O)c2ccncc2)cc2ccccc21 (stereo not drawn)
inactive: [1] 23.7 µM | [2] 74.6 µM | [3] 57.1 µM | [4] 40.5 µM | [5] 39.1 µM | [6] 55.1 µM | [7] 50 µM | [8] 27.1 µM | [9] 40.3 µM | [10] 58.9 µM | [11] 43.1 µM | [12] 26.2 µM | [18] 35.6 µM | [13] 26.5 µM | [14] 31.6 µM | [15] 35.9 µM | [16] 28.4 µM

CCOC(=O)c1c(C)cc(=O)n2c1[nH]c1ccccc12
inactive: [1] > 100 µM | [2] 36.6 µM | [4] > 100 µM | [5] 64 µM | [6] > 100 µM | [7] 88.3 µM | [17] > 100 µM | [9] > 100 µM | [10] 17.2 µM | [11] 57.1 µM | [12] 14.1 µM | [18] > 100 µM | [13] > 100 µM | [14] 50.9 µM | [15] > 100 µM | [16] 99.3 µM

COc1cc2c3cc1Oc1c(OC)c(OC)cc4c1C(Cc1ccc(O)c(c1)-c1cc(ccc1OC)CC3N(C)CC2)N(C)CC4 (stereo not drawn)
inactive: [1] 11.8 µM | [2] 13.3 µM | [3] 17.5 µM | [4] 50.8 µM | [5] 13.6 µM | [6] 27 µM | [7] 22.3 µM | [17] 18.2 µM | [9] 4.8 µM | [10] 16.4 µM | [11] 12.3 µM | [12] 16 µM | [13] 23.9 µM | [14] 6 µM | [15] 20.4 µM | [16] 32.9 µM | [19] 11.5 µM

Cc1cc(OC(=O)Nc2cccc3ccccc23)c(C(C)C)cc1C(=S)Nc1ccccc1
inactive: [1] 11.4 µM | [3] 16.3 µM | [4] 22.3 µM | [5] 17.9 µM | [6] 18 µM | [7] 27.2 µM | [8] 21.1 µM | [17] 17.3 µM | [9] 14.7 µM | [10] 22.1 µM | [11] 17.8 µM | [12] 16.9 µM | [18] 7.6 µM | [13] 12.5 µM | [14] 5.77 µM | [15] 15.7 µM | [19] 14.1 µM

CC1=C(C(=O)NNC(=O)Cc2ccccc2)CC(C(=O)NNC(=O)Cc2ccccc2)=C(C)N1
inactive: [2] > 100 µM | [3] > 100 µM | [4] > 100 µM | [5] > 100 µM | [6] > 100 µM | [7] > 100 µM | [9] 80 µM | [10] > 100 µM | [11] > 100 µM | [12] > 100 µM | [13] 35.4 µM | [16] > 100 µM

COc1ccc(/C=C2\C(=O)N(C3OC(COC(C)=O)C(OC(C)=O)C(OC(C)=O)C3OC(C)=O)c3ccccc3N=C2N)cc1 (stereo not drawn)
inactive: [1] 18.3 µM | [2] 43.5 µM | [3] 16.9 µM | [4] 25.7 µM | [5] 4.48 µM | [6] 23.9 µM | [7] 42.7 µM | [8] 16 µM | [17] 27.4 µM | [9] 24.5 µM | [10] 31.4 µM | [11] 19.7 µM | [12] 25.1 µM | [18] 16.8 µM | [13] 17.5 µM | [14] 11.9 µM | [15] 23.7 µM | [16] 34 µM

CC(Nc1ccc(Cl)cc1)c1ccncc1 (stereo not drawn)
inactive: [1] 64.3 µM | [3] 22.3 µM | [4] 74.6 µM | [5] > 100 µM | [6] > 100 µM | [7] > 100 µM | [8] 12.4 µM | [17] > 100 µM | [9] > 100 µM | [10] > 100 µM | [11] 53.3 µM | [12] 36.8 µM | [18] 83.9 µM | [14] 75.3 µM | [15] 64.1 µM | [16] > 100 µM | [19] 69.5 µM

CCCC[S+]([O-])CCC(N)P(=O)(O)O (stereo not drawn)
inactive: [1] > 100 µM | [3] > 100 µM | [4] > 100 µM | [5] > 100 µM | [6] > 100 µM | [7] > 100 µM | [8] > 100 µM | [17] > 100 µM | [9] > 100 µM | [10] > 100 µM | [11] > 100 µM | [12] > 100 µM | [18] > 100 µM | [13] > 100 µM | [14] > 100 µM | [15] > 100 µM | [16] > 100 µM | [19] > 100 µM

C=CCCC1(CC(Sc2ccccc2)P(=O)(c2ccccc2)c2ccccc2)OCCO1 (stereo not drawn)
inactive: [1] > 10 µM | [2] > 10 µM | [3] > 10 µM | [4] > 10 µM | [5] > 10 µM | [6] > 10 µM | [7] > 10 µM | [8] > 10 µM | [17] > 10 µM | [9] > 10 µM | [10] > 10 µM | [11] > 10 µM | [12] > 10 µM | [18] > 10 µM | [13] > 10 µM | [14] > 10 µM | [15] > 10 µM | [16] > 10 µM

CCn1c(=O)c2c3cc(O)ccc3oc2c2ccc(O)cc21
inactive: [1] 16.1 µM | [2] 25.2 µM | [3] 31.8 µM | [4] 29.4 µM | [5] 30 µM | [6] 35.8 µM | [7] 21.9 µM | [17] 32.7 µM | [10] 34.3 µM | [12] 26.9 µM | [18] 21.1 µM | [13] 20.3 µM | [14] 25.9 µM | [15] 31.1 µM | [16] 24.8 µM | [19] 19.3 µM
